For one series, the system named is T1, B/Malaysia/2506/2004 NA.
T1 construct: recombinant NA secreted from High Five insect cells (baculovirus); N-terminal VASP tetramerization domain
The class given is biochemical, Influenza B virus.

The next series concerns the target WSEIV NA (Wuhan spiny eel influenza virus, UniProt A0A2P1GNP4). It is filed as biochemical.
In series [1] the test system is CC(=O)N[C@H]1[C@H]([C@H](O)[C@H](O)CO)O[C@](Oc2ccc3c(C)cc(=O)oc3c2)(C(=O)O)C[C@@H]1O. The series is described as follows: purified protein. The conditions noted are these: 37.0 °C.

For `CC(=O)N[C@H]1[C@H]([C@H](O)[C@H](O)CO)O[C@](Oc2ccc3c(C)cc(=O)oc3c2)(C(=O)O)C[C@@H]1O` [MUNANA, 4-methylumbelli-feryl N-acetyl-α-D-neuraminic acid], in the series with B/Malaysia/2506/2004 NA, the Km turned out to be 137 ± 23.7 µM.

Take `CCOC(=O)C1=C[C@@H](OC(CC)CC)[C@H](NC(C)=O)[C@@H](N)C1` [oseltamivir]: the dose-dependent inhibition entry on WSEIV NA is listed as “The WSEIV NA was sensitive to oseltamivir”.

“WSEIV NA (Wuhan spiny eel influenza virus)”: the Km in series [1] came to 118.5 ± 18.3 µM.

The values are drawn from PMC8546056 (Nature Communications, 2021).
